Results: patent publication US20090137678A1, “HIGH YIELD SYNTHESIS METHODS FOR PRODUCING ORGANIC SALTS OF STRONTIUM” (priority 2005, published 2009)

Assays:
[1] = Heating of strontium malonate sesquihydrate to remove bound crystal water; format: physicochemical
Protocol: The crystal water was irreversibly detached from the malonate at temperatures above approx. 70° C. Thus, anhydrous strontium malonate was produced in high yield and high purity by boiling a solution of strontium malonate.

new vertebral fracture = details: cited from earlier work

Structure (SMILES)	temperature above which crystal water is irreversibly detached [1]	RR of new vertebral fracture vs placebo (new vertebral fracture; 95% CI=0.48-0.73, P<0.001)	serum cross-linked C terminal telopeptides of type I collagen (CTX, marker of bone resorption) (new vertebral fracture; clinical studies, serum)	bone formation marker BSAP (new vertebral fracture; clinical studies)	patients who sustained a new vertebral fracture (new vertebral fracture; strontium treated group, vs 222 in the placebo group, more than 7000 individuals)
O.O.O.O=C([O-])CC(=O)[O-].O=C([O-])CC(=O)[O-].[Sr+2].[Sr+2] [strontium malonate sesquihydrate]	> 70 °C	–	–	–	–
N#Cc1c(N(CC(=O)[O-])CC(=O)[O-])sc(C(=O)[O-])c1CC(=O)[O-].[Sr+2].[Sr+2] [strontium ranelate]	–	0.59	decreased	increased	139 patients
